Measured values published in patent US20240050428A1 (Cullgen (Shanghai), Inc., priority 2020, published 2024).
pIC50: −log10 of the molar value. Read-outs that look alike come from different tables or passages of the source.

Key:
MV4;11 cells = test: Cell viability assay (CellTiter-Glo) in MV4;11 cells, alone or with gilteritinib; type: cell-based; conditions: Homo sapiens, MV4-11, 72 h, MV4;11 cells, three days, CellTiter-Glo, read-out: MV4
MOLM-13 cells = test: Cell viability assay (CellTiter-Glo) in MOLM-13 cells, alone or with gilteritinib; type: cell-based; conditions: Homo sapiens, MOLM-13, 72 h, MOLM-13 cells, three days, CellTiter-Glo
[1] = compound alone (without gilteritinib), 11 IC50
[2] = with gilteritinib 10 nM, 11 IC50 gilteritinib
[3] = compound alone (without gilteritinib), read-out: MOLM-13 IC50
[4] = with gilteritinib 20 nM, read-out: MOLM-13 IC50 gilteritinib

| Structure (SMILES) | pIC50 (MV4;11 cells; [1]) | pIC50 (MV4;11 cells; [2]) | pIC50 (MOLM-13 cells; [3]) | pIC50 (MOLM-13 cells; [4]) |
| --- | --- | --- | --- | --- |
| O=C1CCC(N2C(=O)c3ccc(NCCC4CC(C(=O)N5CCC(n6cc(-c7cnc8ccccc8n7)cn6)CC5)C4)cc3C2=O)C(=O)N1 (stereo not drawn) [GS-205, 2-(2,6-Dioxopiperidin-3-yl)-5-((2-(3-(4-(4-(quinoxalin-2-yl)-1H-pyrazol-1-yl)piperidine-1-carbonyl)cyclobutyl)ethyl)amino)isoindoline-1,3-dione] | 7.00 to 8.00 | > 8.00 | 7.00 to 8.00 | > 8.00 |
| O=C1CCC(N2C(=O)c3ccc(NCCC[C@H]4C[C@H](n5cc(-c6cnc7ccc(Cl)cc7n6)cn5)C4)cc3C2=O)C(=O)N1 (stereo partly drawn) [GS-206, 5-((3-(trans-3-(4-(7-Chloroquinoxalin-2-yl)-1H-pyrazol-1-yl)cyclobutyl)propyl)amino)-2-(2,6-dioxopiperidin-3-yl)isoindoline-1,3-dione] | 7.00 to 8.00 | 7.00 to 8.00 | 6.00 to 7.00 | 7.00 to 8.00 |
| O=C1CCC(N2C(=O)c3ccc(NCCC[C@H]4C[C@@H](n5cc(-c6cnc7ccc(N8CCOCC8)cc7n6)cn5)C4)cc3C2=O)C(=O)N1 (stereo partly drawn) [GS-207, 2-(2,6-Dioxopiperidin-3-yl)-5-((3-(cis-3-(4-(7-morpholinoquinoxalin-2-yl)-1H-pyrazol-1-yl)cyclobutyl)propyl)amino)isoindoline-1,3-dione] | 6.00 to 7.00 | 7.00 to 8.00 | 6.00 to 7.00 | > 8.00 |
| O=C1CCC(N2C(=O)c3ccc(NCCC[C@H]4C[C@H](n5cc(-c6cnc7ccc(CN8CCOCC8)cc7n6)cn5)C4)cc3C2=O)C(=O)N1 (stereo partly drawn) [GS-208, 2-(2,6-Dioxopiperidin-3-yl)-5-((3-(trans-3-(4-(7-(morpholinomethyl)quinoxalin-2-yl)-1H-pyrazol-1-yl)cyclobutyl)propyl)amino)isoindoline-1,3-dione] | 6.00 to 7.00 | 7.00 to 8.00 | 6.00 to 7.00 | 7.00 to 8.00 |
| O=C1CCC(N2C(=O)c3ccc(NCCC[C@H]4C[C@H](n5cc(-c6cnc7ccc(CN8CCNCC8)cc7n6)cn5)C4)cc3C2=O)C(=O)N1 (stereo partly drawn) [GS-209, 2-(2,6-Dioxopiperidin-3-yl)-5-((3-(trans-3-(4-(7-(piperazin-1-ylmethyl)quinoxalin-2-yl)-1H-pyrazol-1-yl)cyclobutyl)propyl)amino)isoindoline-1,3-dione] | 6.00 to 7.00 | 7.00 to 8.00 | 6.00 to 7.00 | 7.00 to 8.00 |
| O=C1CCC(N2C(=O)c3ccc(NCCC[C@H]4C[C@@H](n5cc(-c6cnc7ccc(C8CCOCC8)cc7n6)c(C(F)(F)F)n5)C4)cc3C2=O)C(=O)N1 (stereo partly drawn) [GS-210, 2-(2,6-Dioxopiperidin-3-yl)-5-((3-(cis-3-(4-(7-(tetrahydro-2H-pyran-4-yl)quinoxalin-2-yl)-3-(trifluoromethyl)-1H-pyrazol-1-yl)cyclobutyl)propyl)amino)isoindoline-1,3-dione] | > 8.00 | > 8.00 | > 8.00 | > 8.00 |
| O=C1CCC(N2C(=O)c3ccc(NCCCCC(=O)N4CCC(n5cc(-c6cnc7ccc(N8CCNCC8)cc7n6)c(C6CC6)n5)CC4)cc3C2=O)C(=O)N1 (stereo not drawn) [GS-211, 5-((5-(4-(3-Cyclopropyl-4-(7-(piperazin-1-yl)quinoxalin-2-yl)-1H-pyrazol-1-yl)piperidin-1-yl)-5-oxopentyl)amino)-2-(2,6-dioxopiperidin-3-yl)isoindoline-1,3-dione] | 7.00 to 8.00 | > 8.00 | 7.00 to 8.00 | > 8.00 |
| O=C1CCC(N2C(=O)c3ccc(NCCC[C@H]4C[C@H](n5cc(-c6cnc7ccc(C(F)(F)F)cc7n6)cn5)C4)cc3C2=O)C(=O)N1 (stereo partly drawn) [GS-212, 2-(2,6-Dioxopiperidin-3-yl)-5-((3-(trans-3-(4-(7-(trifluoromethyl)quinoxalin-2-yl)-1H-pyrazol-1-yl)cyclobutyl)propyl)amino)isoindoline-1,3-dione] | 7.00 to 8.00 | 7.00 to 8.00 | 7.00 to 8.00 | 7.00 to 8.00 |
| O=C1CCC(N2C(=O)c3ccc(NCCC[C@H]4C[C@@H](n5cc(-c6cnc7ccc(C8CCOCC8)cc7n6)c(C6CC6)n5)C4)cc3C2=O)C(=O)N1 (stereo partly drawn) [GS-213, 5-((3-(cis-3-(3-Cyclopropyl-4-(7-(tetrahydro-2H-pyran-4-yl)quinoxalin-2-yl)-1H-pyrazol-1-yl)cyclobutyl)propyl)amino)-2-(2,6-dioxopiperidin-3-yl)isoindoline-1,3-dione] | > 8.00 | > 8.00 | > 8.00 | > 8.00 |
| O=C1CCC(N2C(=O)c3ccc(NCCC[C@H]4C[C@@H](n5cc(-c6cnc7ccc(NC8CCNCC8)cc7n6)cn5)C4)cc3C2=O)C(=O)N1 (stereo partly drawn) [GS-214, 2-(2,6-Dioxopiperidin-3-yl)-5-((3-(cis-3-(4-(7-(piperidin-4-ylamino)quinoxalin-2-yl)-1H-pyrazol-1-yl)cyclobutyl)propyl)amino)isoindoline-1,3-dione] | 6.00 to 7.00 | 7.00 to 8.00 | < 6.00 | 7.00 to 8.00 |
| O=C1CCC(N2C(=O)c3ccc(NCCC[C@H]4C[C@H](n5cc(-c6cnc7ccc(N8CC9CCC(C8)N9)cc7n6)cn5)C4)cc3C2=O)C(=O)N1 (stereo partly drawn) [GS-215, 5-((3-(trans-3-(4-(7-(3,8-Diazabicyclo[3.2.1]octan-3-yl)quinoxalin-2-yl)-1H-pyrazol-1-yl)cyclobutyl)propyl)amino)-2-(2,6-dioxopiperidin-3-yl)isoindoline-1,3-dione] | 6.00 to 7.00 | 7.00 to 8.00 | 6.00 to 7.00 | > 8.00 |
| O=C1CCC(N2C(=O)c3ccc(NC[C@H]4C[C@H](n5cc(-c6cccc(N7CCOCC7)n6)cn5)C4)cc3C2=O)C(=O)N1 (stereo partly drawn) [GS-216, 2-(2,6-Dioxopiperidin-3-yl)-5-(((trans-3-(4-(6-morpholinopyridin-2-yl)-1H-pyrazol-1-yl)cyclobutyl)methyl)amino)isoindoline-1,3-dione] | 6.00 to 7.00 | < 6.00 | < 6.00 | < 6.00 |
| O=C1CCC(N2C(=O)c3ccc(NCCC[C@H]4C[C@H](n5cc(-c6cccc(N7CCOCC7)n6)cn5)C4)cc3C2=O)C(=O)N1 (stereo partly drawn) [GS-217, 2-(2,6-Dioxopiperidin-3-yl)-5-((3-(trans-3-(4-(6-morpholinopyridin-2-yl)-1H-pyrazol-1-yl)cyclobutyl)propyl)amino)isoindoline-1,3-dione] | 7.00 to 8.00 | > 8.00 | 6.00 to 7.00 | > 8.00 |
| O=C1CCC(N2C(=O)c3ccc(NC[C@H]4C[C@H](n5cc(-c6cccc(NC7CCOCC7)n6)cn5)C4)cc3C2=O)C(=O)N1 (stereo partly drawn) [GS-218, 2-(2,6-Dioxopiperidin-3-yl)-5-(((trans-3-(4-(6-((tetrahydro-2H-pyran-4-yl)amino)pyridin-2-yl)-1H-pyrazol-1-yl)cyclobutyl)methyl)amino)isoindoline-1,3-dione] | 6.00 to 7.00 | 7.00 to 8.00 | 6.00 to 7.00 | 7.00 to 8.00 |
| O=C1CCC(N2C(=O)c3ccc(NCCC[C@H]4C[C@H](n5cc(-c6cnc7c(Cl)cccc7n6)cn5)C4)cc3C2=O)C(=O)N1 (stereo partly drawn) [GS-219, 5-((3-(trans-3-(4-(5-Chloroquinoxalin-2-yl)-1H-pyrazol-1-yl)cyclobutyl)propyl)amino)-2-(2,6-dioxopiperidin-3-yl)isoindoline-1,3-dione] | 6.00 to 7.00 | 7.00 to 8.00 | < 6.00 | 7.00 to 8.00 |
